Measurements published in ChEMBL document CHEMBL4425141, “Design, Synthesis, and Identification of 4″α-Azidoethyl-cyclic ADP-Carbocyclic-ribose as a Highly Potent Analogue of Cyclic ADP-Ribose, a Ca(2+)-Mobilizing Second Messenger” (J Med Chem, 2016).

Experiments:
[1] = system: Hemicentrotus pulcherrimus; experiment: (§1) Induction of calcium mobilization in sea urchin egg by fluorometry; format: functional
[2] = as §1; format: functional, Hemicentrotus pulcherrimus

Row | EC50 [2] | Compound | Activity [1]
1 | 213 nM | Nc1c2ncn3c2nc[n+]1[C@@H]1O[C@H](COP(=O)([O-])OP(=O)(O)OC[C@H]2O[C@@H]3[C@H](O)[C@@H]2O)[C@@H](O)[C@H]1O | Dose-dependent effect
2 | 54 nM | Nc1c2ncn3c2nc[n+]1[C@@H]1C[C@H](COP(=O)([O-])OP(=O)(O)OC[C@H]2O[C@@H]3[C@H](O)[C@@H]2O)[C@@H](O)[C@H]1O | 
3 | 24 nM | [N-]=[N+]=NCC[C@]12COP(=O)(O)OP(=O)([O-])OC[C@H]3O[C@H]([C@H](O)[C@@H]3O)n3cnc4c(N)[n+](cnc43)[C@H](C1)[C@H](O)[C@@H]2O | 
